Measured values published in US4906639A, “Cycloalkanol esters of dihydrolysergic acid” (Eli Lilly and Company, priority 1989, dated 1990).
Counter-ions that a name gives are not always drawn.

Tested on: 5HT2 receptors
Experiment: not given
Details: mediated by 5HT2 receptors; Cohen I; cited from earlier work

| Structure (SMILES) | antagonism of vascular contraction to serotonin |
| --- | --- |
| CC(O)C(C)OC(=O)[C@@H]1C[C@@H]2c3cccc4c3c(cn4C(C)C)C[C@H]2N(C)C1 (stereo partly drawn) [LY53857, 1-isopropyl-6-methyl-8β-(1-methyl-2-hydroxy)propoxycarbonyl-5R-ergoline] | potent antagonist |

Molecular target: T1, 5HT2 receptors (Rattus norvegicus, UniProt P14842)
T1 construct: their external jugular veins and thoracic aortas dissected free of connective tissue; from tissue; host or cells: isolated external jugular vein of male Wistar rats
Experiment: Apparent dissociation constants for 5HT2 receptors determined in the rat jugular vein (antagonism of contraction to serotonin)
Type: cell-based, rat (male Wistar)
Details: antagonist incubated one hour, agonist serotonin, 37° C., read-out: -log KB (apparent dissociation constant, negative logarithm) (converted)
Procedure: An initial optimum resting force of 1 and 4 g was applied to the jugular vein and aorta, respectively. […] Exp. Ther., 205, 400 (1978). Alpha receptor antagonist activity was evaluated in the aorta.

T1 sequence (P14842 whole entry): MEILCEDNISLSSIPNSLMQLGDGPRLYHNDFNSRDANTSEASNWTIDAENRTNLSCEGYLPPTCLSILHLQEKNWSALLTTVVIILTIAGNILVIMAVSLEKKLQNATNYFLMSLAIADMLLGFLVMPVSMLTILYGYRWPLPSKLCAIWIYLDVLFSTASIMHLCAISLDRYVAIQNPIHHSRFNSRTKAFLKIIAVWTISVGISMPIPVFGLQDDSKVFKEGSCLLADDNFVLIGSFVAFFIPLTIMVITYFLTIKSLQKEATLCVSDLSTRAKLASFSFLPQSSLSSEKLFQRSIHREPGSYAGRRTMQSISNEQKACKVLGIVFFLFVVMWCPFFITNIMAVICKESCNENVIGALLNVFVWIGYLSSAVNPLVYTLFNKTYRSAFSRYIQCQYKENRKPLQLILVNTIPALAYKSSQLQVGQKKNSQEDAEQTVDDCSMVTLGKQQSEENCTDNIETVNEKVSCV

| Structure (SMILES) | Kb [nM] |
| --- | --- |
| CC(C)n1cc2c3c(cccc31)[C@H]1C[C@@H](C(=O)OC3CCCCC3)CN(C)[C@@H]1C2 [CH3, cyclohexyl, maleate, cyclohexyl 1-isopropyl-9,10-dihydrolysergate maleate] | 2.14 |
| CCCN1C[C@H](C(=O)OC2CCCCC2)C[C@@H]2c3cccc4c3c(cn4C(C)C)C[C@H]21 [n-C3 H7, cyclohexyl, HCl] | 85.1 |
| CCN1C[C@H](C(=O)OC2CCCCC2)C[C@@H]2c3cccc4c3c(cn4C(C)C)C[C@H]21 [C2 H5, cyclohexyl, HCl, 1-Isopropyl-6-ethyl-8β-cyclohexyloxycarbonylergoline] | 15.5 |
| CCCCN1C[C@H](C(=O)OC2CCCCC2)C[C@@H]2c3cccc4c3c(cn4C(C)C)C[C@H]21 [n-C4 H9, cyclohexyl, HCl, 1-Isopropyl-6-n-butyl-8β-cyclohexyloxycarbonyl ergoline hydrochloride] | 39.8 |
| CC(C)n1cc2c3c(cccc31)[C@H]1C[C@@H](C(=O)OC3CCC(=O)CC3)CN(C)[C@@H]1C2 [CH3,4-oxocyclohexyl, maleate, 4-Oxocyclohexyl 1-isopropyl-9,10-dihydrolysergate] | 0.0977 |
